Assay results reported in patent publication US10604494B2, “Acylated N-(1 ,2,5-oxadiazol-3-yl)-, N-(1,3,4-oxadiazol-2-yl)-, N-(tetrazol-5-yl)- and N-(triazol-5-yl)-aryl carboxamides, and use thereof as herbicides” (Bayer CropScience Aktiengesellschaft, priority 2015, dated 2020).

Experiments:
Assay type in all cases: in vivo
[1] = test system: Abutilon theophrasti; test: Pre-emergence herbicidal action against harmful plants; settings: 504 h, application rate 320 g/ha, scored visually after 3 weeks vs untreated controls, 100% = plants have died, 0% = like control plants, read-out: efficacy (herbicidal activity in percent) against Abutilon theophrasti
Source text: (§1) 1. Pre-Emergence Herbicidal Action Against Harmful Plants Seeds of monocotyledonous and dicotyledonous weed plants and crop plants are laid out in sandy loam in wood-fiber pots and covered with soil. The compounds of the invention, formulated in the form of wettable powders (WP) or as emulsion concentrates (EC), are then applied to the surface of the covering soil in the form of an aqueous suspension or emulsion at a water application rate equating to 600 to 800 I/ha, with addition of 0.2% wetting agent. After the treatment, the pots are placed in a greenhouse and kept under good growth conditions for the trial plants. The damage to the test plants is scored visually after a test period of 3 weeks by comparison with untreated controls (herbicidal activity in percent (%): 100% activity=the plants have died, 0% activity=like control plants). In this case, for example, compound Nos. 1-086, 1-028, 1-206, 1-447, 1-448, 1-449, 1-454, 1-458, 1-470, 1-471, 1-472, 1-477, 1-487, 2-477, 2-480, 2-500, 3-143, 3-475, 3-491, 4-188, 4-495, 4-430, 4-496, 13-001, 13-031 and 13-032, at an application rate of 320 g/ha, each show at least 80% efficacy against Abutilon theophrasti and Veronica persica.

[2] = test system: Veronica persica; test: as above; settings: 504 h, application rate 320 g/ha, scored visually after 3 weeks vs untreated controls, 100% = plants have died, 0% = like control plants, read-out: efficacy (herbicidal activity in percent) against Veronica persica
Source text: as §1

[3] = test system: Abutilon theophrasti; test: Post-emergence herbicidal action against harmful plants; settings: 504 h, one-leaf stage, application rate 80 g/ha, assessed visually after about 3 weeks vs untreated controls, 100% = plants have died, 0% = like control plants, read-out: efficacy (herbicidal action in percent) against Abutilon theophrasti
Description: (§2) 2. Post-Emergence Herbicidal Action Against Harmful Plants Seeds of monocotyledonous and dicotyledonous weed and crop plants are laid out in sandy loam soil in wood-fiber pots, covered with soil and cultivated in a greenhouse under good growth conditions. 2 to 3 weeks after sowing, the test plants are treated at the one-leaf stage. The compounds of the invention, formulated in the form of wettable powders (WP) or as emulsion concentrates (EC), are then sprayed onto the green parts of the plants in the form of an aqueous suspension or emulsion at a water application rate equating to 600 to 800 I/ha, with addition of 0.2% wetting agent. After the test plants have been left to stand in the greenhouse under optimal growth conditions for about 3 weeks, the action of the preparations is assessed visually in comparison to untreated controls (herbicidal action in percent (%): 100% activity=the plants have died, 0% activity=like control plants). In this case, for example, compound Nos. 1-028, 1-085, 1-086, 1-206, 1-447, 1-448, 1-449, 1-453, 1-457, 1-460, 1-470, 1-471, 1-472, 1-487, 2-500, 3-143, 3-146, 3-487, 3-491, 3-492, 4-144, 4-188, 13-001, 13-031 and 13-032, at an application rate of 80 g/ha, each show at least 80% efficacy against Abutilon theophrasti and Veronica persica.

[4] = test system: Veronica persica; test: as above; settings: 504 h, one-leaf stage, application rate 80 g/ha, assessed visually after about 3 weeks vs untreated controls, 100% = plants have died, 0% = like control plants, read-out: efficacy (herbicidal action in percent) against Veronica persica
Description: as §2

CC(C)c1c(C(=O)N(C(=O)c2ccc(C(F)(F)F)c(S(C)(=O)=O)c2C(C)C)c2nnnn2C)ccc(C(F)(F)F)c1S(C)(=O)=O [1-206]
≥ 80%: pest or weed control at 320 g/ha [1] | pest or weed control at 320 g/ha [2] | pest or weed control at 80 g/ha [3] | pest or weed control at 80 g/ha [4]

Cc1c(C(=O)N(C(=O)c2ccc(C(F)(F)F)c(N)c2C)c2nnnn2C)ccc(C(F)(F)F)c1N [1-447]
≥ 80%: pest or weed control at 320 g/ha [1] | pest or weed control at 320 g/ha [2] | pest or weed control at 80 g/ha [3] | pest or weed control at 80 g/ha [4]

Cc1c(C(=O)N(C(=O)c2ccc(C(F)(F)F)c(N(C)C)c2C)c2nnnn2C)ccc(C(F)(F)F)c1N(C)C [1-448]
≥ 80%: pest or weed control at 320 g/ha [1] | pest or weed control at 320 g/ha [2] | pest or weed control at 80 g/ha [3] | pest or weed control at 80 g/ha [4]

CNc1c(C(F)(F)F)ccc(C(=O)N(C(=O)c2ccc(C(F)(F)F)c(NC)c2C)c2nnnn2C)c1C [1-449]
≥ 80%: pest or weed control at 320 g/ha [1] | pest or weed control at 320 g/ha [2] | pest or weed control at 80 g/ha [3] | pest or weed control at 80 g/ha [4]

CCOC(=O)c1c(SC)ccc(C(=O)N(C(=O)c2ccc(SC)c(C(=O)OCC)c2C)c2nnnn2C)c1C [1-453, 3-(ethoxycarbonyl)-2-methyl-4-(methylsulfanyl)-N-(3-(ethoxycarbonyl)-2-methyl-4-(methylsulfanyl)benzoyl)-N-(1-methyltetrazol-5-yl)benzamide]
≥ 80%: pest or weed control at 80 g/ha [3] | pest or weed control at 80 g/ha [4]

CSc1c(N(C)C)ccc(C(=O)N(C(=O)c2ccc(N(C)C)c(SC)c2C)c2nnnn2C)c1C [1-454]
≥ 80%: pest or weed control at 320 g/ha [1] | pest or weed control at 320 g/ha [2]

CCOc1ccc(C(=O)N(C(=O)c2ccc(OCC)c(SC)c2C)c2nnnn2C)c(C)c1SC [1-457]
≥ 80%: pest or weed control at 80 g/ha [3] | pest or weed control at 80 g/ha [4]

CSc1c(OCC(F)(F)F)ccc(C(=O)N(C(=O)c2ccc(OCC(F)(F)F)c(SC)c2C)c2nnnn2C)c1C [1-458]
≥ 80%: pest or weed control at 320 g/ha [1] | pest or weed control at 320 g/ha [2]

CSc1cc(C)cc(C(=O)N(C(=O)c2cc(C)cc(SC)c2C)c2nnnn2C)c1C [1-460]
≥ 80%: pest or weed control at 80 g/ha [3] | pest or weed control at 80 g/ha [4]

CCOc1c(C(=O)N(C(=O)c2ccc(C(F)(F)F)c(SC)c2OCC)c2nnnn2C)ccc(C(F)(F)F)c1SC [1-471]
≥ 80%: pest or weed control at 320 g/ha [1] | pest or weed control at 320 g/ha [2] | pest or weed control at 80 g/ha [3] | pest or weed control at 80 g/ha [4]

CCOc1c(C(=O)N(C(=O)c2ccc(C(F)(F)F)c(S(C)(=O)=O)c2OCC)c2nnnn2C)ccc(C(F)(F)F)c1S(C)(=O)=O [1-472]
≥ 80%: pest or weed control at 320 g/ha [1] | pest or weed control at 320 g/ha [2] | pest or weed control at 80 g/ha [3] | pest or weed control at 80 g/ha [4]

Cc1nonc1N(C(=O)c1ccc(C(F)(F)F)c([S+](C)[O-])c1C)C(=O)c1ccc(C(F)(F)F)c([S+](C)[O-])c1C (centres unmarked) [4-144]
≥ 80%: pest or weed control at 80 g/ha [3] | pest or weed control at 80 g/ha [4]

CC[S+]([O-])c1c(S(C)(=O)=O)ccc(C(=O)N(C(=O)c2ccc(S(C)(=O)=O)c([S+]([O-])CC)c2C)c2nonc2C)c1C (centres unmarked) [4-188]
≥ 80%: pest or weed control at 320 g/ha [1] | pest or weed control at 320 g/ha [2] | pest or weed control at 80 g/ha [3] | pest or weed control at 80 g/ha [4]

CC(=O)N(C(=O)c1ccc(C(F)(F)F)cc1S(C)(=O)=O)c1nnnn1C [13-001, 2-(methylsulfonyl)-4-trifluoromethyl-N-acetyl-N-(1-methyltetrazol-5-yl)benzamide]
≥ 80%: pest or weed control at 320 g/ha [1] | pest or weed control at 320 g/ha [2] | pest or weed control at 80 g/ha [3] | pest or weed control at 80 g/ha [4]
